These results are taken from patent publication US4278687A, “Inhibition of biosynthesis of triglycerides by certain N-β-phenethyl-N-thienylalkylamines” (Shell Oil Company, priority 1980, dated 1981).

The assay relates to enzyme from pig adipose tissue (synthesis of triglycerides). Briefly: Inhibition of triglyceride synthesis by enzyme preparation from pig adipose tissue (14C-glycerol-3-phosphate incorporation). The format is biochemical. To be noted: test compound 1000 micrograms per milliliter, 5% DMSO, 8 minutes at 37° C; compared to controls without test compound; average of two animals. The protocol: An enzyme was prepared by homogenizing one gram of slices from pig adipose tissue, each slice being approximately 0.3 mm thick, in one-milliliter portions of a liquid medium (Liquid A). The homogenate then was centrifuged (10.000 g×15 minutes), and the supernatant phase (the enzyme) was poured through cheesecloth to remove fat that had risen to the top of the centrifuge tubes.
Liquid A had the following composition (in water):
0.15 M potassium chloride, 1 mM ethylenediaminetetracetic acid, […] Hepes (N-2-hydroxyethylpiperazine-N'-2-ethanesulfonic acid), 1 mM DTT (dithiothreitol), pH=7.0.
A solution of the test compound (Liquid B) was prepared: 10 milligrams of test compound plus 0.5 milliliter dimethylsulfoxide (DMSO) plus 1.83 milliliters of glass-distilled water.
A premix (Liquid C) was freshly prepared before each test, from the following components:
0.163 milliliter of Liquid B (containing the test compound, or for comparison omitting the test compound) was mixed with 0.1 milliliter of Liquid C, 0.05 milliliter of a solution of L-[U-^14 C] glycerol-3-phosphate (containing 5 microcuries of ^14 C per milliliter), 0.01 milliliter of 0.8 M potassium phosphate (pH=7.4), 0.07 milliliter of 0.2 M glycerol-3-phosphate (pH=7.4) and 0.047 milliliter of water. 0.25 milliliter of enzyme then was added. The final concentrations of DMSO and test compound were 5% and 1000 micrograms per milliliter, respectively. The mixture was incubated for 8 minutes at 37° C. A blank control without enzyme was incubated under the same conditions. Then, 3 milliliters of a 1:2 (v/v) mixture of chloroform and methanol was added and thoroughly mixed to terminate the reaction. After 10 minutes, 2 milliliters of chloroform and 1 milliliter of 0.1 N hydrochloric acid were added to the stirred mixture. The mixture was then centrifuged (275 g) for 5 minutes at room temperature. The top layer of the sample was siphoned off. Two milliliters of 0.1 N hydrochloric acid in 50% methanol/water was added, the mixture was centrifuged (275 g) and the top layer was carefully siphoned off. The resulting liquid (the chloroform phase) was transferred to a liquid scintillation vial and air dried. Ten milliliters of a 2:1 (v/v) mixture of toluene and Triton X-100 containing 0.27% New England Nuclear Omnifluor was added, and the radioactivity was determined in a liquid scintillation counter.
Three replicates (samples of enzyme) were conducted per experiment (per animal). The results were reported as the average of the values obtained from the adipose tissue from two experiments (i.e., two different animals).
The percent inhibition by the test compound compared to the controls (no test compound) was determined.

The structures appear in SMILES notation.

With `CC(NCCC(c1ccccc1)c1ccsc1)C(O)c1ccccc1.Cl` (stereo not drawn) [Compound 1, alpha-(1-(3-phenyl-3-(3-thienyl)propylamino)ethyl)-benzenemethanol, hydrochloride], the “Percent Inhibition” value turned out to be 94.

On to `Cl.OC(CNCC=C(c1ccsc1)c1ccsc1)c1cccc(C(F)(F)F)c1` (stereo not drawn) [Compound 2, alpha-((3,3-di-3-thienyl-2-propenylamino)methyl)-3-(trifluoromethyl)benzenemethanol, hydrochloride], for which the “Percent Inhibition” value is reported as 101.

For `CC(NCC=C(c1ccsc1)c1ccsc1)C(O)c1ccccc1.Cl` (stereo not drawn) [Compound 3, alpha-(1-(3,3-di-3-thienyl-2-propenylamino)ethyl)-benzenemethanol, hydrochloride], the “Percent Inhibition” value is 97.

In the case of `Cl.OC(CNCCC(O)(c1ccccc1)c1ccsc1)c1ccc(Cl)cc1` (stereo not drawn) [Compound 4, alpha-(2-(2-(4-chlorophenyl)-2-hydroxyethylamino)-ethyl)-alpha-phenyl-3-thiophenemethanol, hydrochloride], the “Percent Inhibition” value was 94.

Regarding `CC(C)c1ccc(C(=CCNC(C)C(O)c2ccccc2)c2ccsc2)cc1.Cl` (stereo not drawn) [Compound 5, alpha-(1-(3-(4-(1-methylethyl)-phenyl)-3-(3-thienyl)-2-propenylamino)ethyl)benzenemethanol, hydrochloride], the “Percent Inhibition” value is 96.
